{"source": "EPA's ToxValDB 9.5 (doi:10.2903/j.efsa.2009.1350)", "key": {"Typhlodromus pyri": {"test_system": "Typhlodromus pyri", "test": "LR50; higher = less toxic", "settings": "acute; duration: 7 days; mortality"}, "Neomysis kadiakensis": {"test_system": "Neomysis kadiakensis", "settings": "chronic/long-term; duration: 28 days; reproduction"}, "Apis mellifera": {"test_system": "Apis mellifera", "settings": "acute; duration: 48 hours; oral; unspecified; mortality"}, "Anas platyrhynchos": {"test_system": "Anas platyrhynchos", "settings": "for NOEC: reproductive"}, "Daphnia magna": {"test_system": "Daphnia magna", "settings": "chronic/long-term; duration: 21 days; reproduction"}, "Canidae": {"test_system": "Canidae", "settings": "subchronic; duration: 90 days; oral; diet; Dog Other; clinical signs"}, "Bibionidae": {"test_system": "Bibionidae", "settings": "chronic/long-term; duration: 28 days"}, "Rattus norvegicus": {"test_system": "Rattus norvegicus", "settings": "for LD50: acute; for NOAEL: histopathology: nonneoplastic"}, "Lolium perenne": {"test_system": "Lolium perenne", "settings": "acute; duration: 21 days; other"}, "Cyprinodon variegatus": {"test_system": "Cyprinodon variegatus", "settings": "mortality"}}}
{"smiles": "CCCOc1nc2ccc(I)cc2c(=O)n1CCC", "note": "[Proquinazid]", "values": [{"measurement": "LR50", "setting": "Typhlodromus pyri", "value": 47.9, "unit": "g/ha"}, {"measurement": "NOEC", "setting": "Neomysis kadiakensis", "value": 0.0105, "unit": "mg/L"}, {"measurement": "LC50", "setting": "Tagia sp.; acute, duration: 14 days, mortality", "value": "> 1000", "unit": "mg/kg"}, {"measurement": "NOEC", "setting": "Tagia sp.; chronic/long-term, duration: 56 days", "value": "> 50.9", "unit": "mg/kg"}, {"measurement": "LD50", "setting": "Apis mellifera", "value": "> 125", "unit": "µg/piece"}, {"measurement": "NOEC", "setting": "Anas platyrhynchos; F", "value": 29.6, "unit": "mg/kg-day"}, {"measurement": "NOEC", "setting": "Anas platyrhynchos; M", "value": 31.5, "unit": "mg/kg-day"}, {"measurement": "LC50", "setting": "Anas platyrhynchos; short-term, oral, feed, mortality", "value": 3110, "unit": "mg/kg-day"}, {"measurement": "NOEC", "setting": "Daphnia magna", "value": 0.0018, "unit": "mg/L"}, {"measurement": "NOAEL", "setting": "Canidae", "value": 19, "unit": "mg/kg-day"}, {"measurement": "NOEC", "setting": "Bibionidae", "value": 0.465, "unit": "mg/L"}, {"measurement": "LD50", "setting": "Rattus norvegicus; oral, mortality", "value": 4850, "unit": "mg/kg-day"}, {"measurement": "NOAEL", "setting": "Rattus norvegicus; chronic, duration: 2 years", "value": 1.2, "unit": "mg/kg-day"}, {"measurement": "NOEL", "setting": "Rattus norvegicus; chronic, mortality", "value": "> 600", "unit": "mg/kg-day"}, {"measurement": "NOEL", "setting": "Rattus norvegicus; reproduction developmental, reproduction", "value": 35.1, "unit": "mg/kg-day"}, {"measurement": "NOAEL", "setting": "Rattus norvegicus; subchronic, duration: 90 days, oral, diet", "value": 2, "unit": "mg/kg-day"}, {"measurement": "LC50", "setting": "Oncorhynchus mykiss; acute, duration: 96 hours, mortality", "value": 0.349, "unit": "µg/mL"}, {"measurement": "NOEC", "setting": "Oncorhynchus mykiss; chronic/long-term, duration: 90 days, other", "value": 0.003, "unit": "mg/L"}, {"measurement": "LEL", "setting": "Lolium perenne", "value": 75, "unit": "g/ha"}, {"measurement": "LC50", "setting": "Colinus virginianus; acute, oral, diet, mortality", "value": 1370, "unit": "mg/kg-day"}, {"measurement": "LD50", "setting": "Colinus virginianus; acute, oral, mortality", "value": "> 2250", "unit": "mg/kg-day"}, {"measurement": "NOEC", "setting": "Colinus virginianus; reproduction developmental", "value": 7.78, "unit": "mg/kg-day"}, {"measurement": "LC50", "setting": "Cyprinodon variegatus; acute, duration: 96 hours", "value": "> 0.58", "unit": "µg/mL"}, {"measurement": "NOEC", "setting": "Cyprinodon variegatus; chronic/long-term, duration: 36 days", "value": 0.00872, "unit": "mg/L"}]}
{"smiles": "CCCOc1nc2ccccc2c(=O)n1CCC", "note": "[2-Propoxy-3-propyl-4(3H)-quinazolinone]", "values": [{"measurement": "LD50", "setting": "Rattus norvegicus; oral, mortality", "value": 2050, "unit": "mg/kg-day"}]}
